Common to all, as to assay: NCI-60 cell line screen, 48 h
The test system of assay [1] is UACC-62 melanoma.
Assay [2] concerns HCT-15 colon.
Assay [3] deals with KM12 colon.
In assay [4] the test system is MOLT-4 leukemia.
The subject of assay [5] is BT-549 breast.
The test system of assay [6] is SW-620 colon.
In assay [7] the test system is 786-0 renal.
The subject of assay [8] is T-47D breast.
The subject of assay [9] is SF-268 CNS.
Assay [10] has as its system OVCAR-5 ovarian.

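Test compounds were applied to cells in 96-well plates for 48 hours at 5 doses. GI50 = concentration required for 50% inhibition of growth. The concentration for full growth arrest is given as TGI.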 Bounds are passed on as bounds.

The text below walks through data of PubChem BioAssay (NCI).

In the case of `COc1ccc(-c2nn3c(-c4cc(F)c(Cl)cc4Cl)nnc3s2)cc1`, the GI50 was 21.8 µM in assay [1]; 18.1 µM in assay [2]; 26.3 µM in [3]; 26.5 µM in assay [4]; 24.4 µM in assay [5]; 24.6 µM in assay [6]. Besides, the GI50 in assay [7] is 33.4 µM; in assay [8], 27.5 µM; in assay [9], 19.7 µM; in assay [10] it was 25.5 µM. The TGI is over 100 µM in assay [1]; over 100 µM in assay [2]; over 100 µM in assay [3]; 80.7 µM in assay [4]; 69.7 µM in assay [5]; over 100 µM in assay [6]. Besides, the TGI in [7] is over 100 µM; in assay [8] it was over 100 µM; in assay [9], over 100 µM; in assay [10] it was 88.9 µM.

Regarding `Cc1ccc(N=Nc2c(O)c(C(=O)O)cc3ccccc23)cc1C`, the TGI in assay [1], in assay [2], in assay [3], in assay [4], in assay [5] and in assay [6] was over 100 µM in each case. Also, the TGI in assay [7], in [9] and in assay [10] was over 100 µM each time.

In the case of `CCCCCCCCCCCCCCCCN1CC2CCCCC2C1` (centres undefined), the GI50 in assay [1] was 8.1 µM; in [2], 6.79 µM; in assay [3] it was 5.15 µM; in assay [4], 1.92 µM; in assay [5] it was 11.3 µM; in assay [6] it was 3.87 µM. The GI50 in assay [7] is 3.49 µM; in assay [9] it was 69.2 µM; in [10], 5.33 µM. Moreover, the TGI in assay [1] stood at 21.1 µM; in assay [2] it was 61.2 µM; in assay [3], 19.7 µM; in assay [4], 4.28 µM; in assay [5] it was 24.6 µM; in [6] it was 15 µM. The TGI in assay [7] is 14 µM; in assay [9] it was over 100 µM; in assay [10], 18.8 µM.

`CCc1nccc2c1nc(-c1nonc1N)n2CC`: the GI50 was over 25 µM in assay [1]; over 25 µM in assay [2]; over 25 µM in assay [3]; over 25 µM in assay [4]; over 23.3 µM in [5]; over 25 µM in [6]. Besides, the GI50 in [7] was over 25 µM; in [8], over 25 µM; in assay [9] it was over 25 µM; in assay [10], over 17.8 µM. The TGI in [1], in [2], in [3], in assay [4], in [5] and in assay [6] was over 25 µM each time. Also, the TGI in assay [7], in assay [8], in [9] and in assay [10] was over 25 µM throughout.

Regarding `CCCCCCCCCCC(C(=O)O)C1(C(=O)O)CCC(=O)O1` (centres undefined), the TGI in assay [1], in assay [2], in assay [3], in [4], in assay [5] and in assay [6] was over 100 µM in each case. For the same compound, the TGI in assay [7], in assay [8], in assay [9] and in assay [10] was over 100 µM throughout.

On to `COc1ccc2c(c1)/C(=C\c1c(C)nc3sccn13)C(=O)N2`, for which the GI50 in [1] is under 0.0356 µM; in assay [2], under 0.0468 µM; in [3], under 0.0402 µM; in assay [4], under 0.0462 µM; in assay [6], under 0.0476 µM; in assay [8], 1.98 µM. Further, the GI50 in assay [9] is 15.7 µM; in [10] it was 7.81 µM. The TGI in assay [1] is 3.35 µM; in assay [2] it was over 27.1 µM; in assay [3], 25.5 µM; in assay [5], over 82.9 µM; in assay [6], over 100 µM; in assay [7] it was over 100 µM. Further, the TGI in assay [8] was over 67.2 µM; in [9] it was over 100 µM; in [10], over 100 µM.

As for `O=C(O)/C=C\C(=O)N1C/C(=C\c2ccccc2Cl)C(=O)/C(=C/c2ccccc2Cl)C1`, the GI50 was 1.88 µM in assay [1]; 2.3 µM in assay [2]; 1.6 µM in assay [3]; 3.06 µM in assay [4]; 2.06 µM in assay [5]; 2.18 µM in [7]. In addition, the values for the GI50 in assay [8] and in assay [9] were 4.48 µM and 1.67 µM, respectively. In addition, the TGI was 3.97 µM in assay [1]; 6.44 µM in assay [2]; 3.12 µM in assay [3]; 11.2 µM in assay [4]; 4.11 µM in assay [5]; 4.06 µM in [7]. Besides, the TGI amounted to 16.2 µM in [8] and 3.54 µM in [9].

Take `COc1ccc(-c2ccc(/C=N/n3c(COc4ccc(Cl)cc4Cl)nn(CN4CCOCC4)c3=S)o2)c([N+](=O)[O-])c1`: the GI50 in assay [1] is 87.6 µM; in assay [2], 26.9 µM; in assay [3] it was 16.7 µM; in assay [4], 19.4 µM; in assay [5], 13.2 µM; in assay [7], 32.5 µM. Further, the figures for the GI50 in [8], in [9] and in [10] were 38.6 µM, 28.6 µM and 38.8 µM, respectively. The TGI was over 100 µM in [1]; over 100 µM in assay [2]; 32.6 µM in assay [3]; 63.3 µM in [4]; 44.6 µM in assay [5]; over 100 µM in [7]. In addition, the TGI in assay [8], in assay [9] and in [10] was over 100 µM in each case.

On to `O=C1/C(=C\c2c[nH]c3ccccc23)c2ccccc2N1c1c(Cl)cccc1Cl`, for which the GI50 was 1.33 µM in assay [1]; 1.16 µM in [2]; 1.84 µM in [3]; 1.5 µM in assay [4]; 1.6 µM in assay [5]; 1.9 µM in [6]. Also, the figures for the GI50 in assay [7], in [8] and in assay [9] were 1.74 µM, 2.01 µM and 1.6 µM, respectively. The TGI in assay [1] came to 2.64 µM; in [2] it was 2.92 µM; in assay [3] it was 3.69 µM; in assay [4], 5.13 µM; in assay [5], 4.07 µM; in [6] it was 3.56 µM. Further, the TGI in assay [7] was 3.21 µM; in assay [8] it was 5.62 µM; in assay [9], 3.59 µM.

Consider `COc1ccc(-c2nc3sc4c(c3c(=O)[nH]2)CCCCCC4)cc1`, for which the GI50 in assay [1] was 0.908 µM; in [2] it was 0.655 µM; in [3], 1.18 µM; in [4], 31.6 µM; in assay [5], 5.4 µM; in [6], 1.81 µM. Further, the GI50 in assay [7] was 8.08 µM; in [9] it was 13.9 µM; in assay [10] it was over 33.2 µM. Further, the TGI in [1], in [2], in assay [3], in [4], in [5] and in assay [6] was over 33.2 µM in each case. For the same compound, the TGI in [7], in assay [9] and in [10] was over 33.2 µM each time.

Regarding `COc1ccc(OC)c(/C=C2\SC(=S)NC2=O)c1`, the GI50 in assay [1] was 17.7 µM; in assay [2] it was 26.2 µM; in assay [3] it was 58.7 µM; in assay [4], 44.8 µM; in assay [6] it was 60.2 µM; in assay [7], 30.8 µM. Further, the GI50 in assay [8] is 18.6 µM; in assay [9], 31.4 µM; in [10] it was 26.7 µM. The TGI is 53.4 µM in assay [1]; 93 µM in [2]; over 100 µM in [3]; over 100 µM in [4]; over 100 µM in assay [6]; over 100 µM in assay [7]. Also, the values for the TGI in assay [8], in assay [9] and in [10] were 56.7 µM, over 100 µM and over 100 µM, respectively.

Regarding `Cc1ccccc1[P+](Cc1ccccc1)(c1ccccc1)c1ccccc1`, the GI50 is 1.36 µM in assay [1]; 23.5 µM in assay [2]; 1.12 µM in assay [3]; 3.58 µM in assay [4]; 2.4 µM in assay [5]; 2.62 µM in [6]. The figures for the GI50 in assay [7], in [9] and in assay [10] were 4.81 µM, 3.44 µM and 2.46 µM, respectively. The TGI in assay [1] is 11.9 µM; in assay [2], over 100 µM; in [3], 15.1 µM; in assay [4], 17.6 µM; in assay [5], 11.5 µM; in assay [6], 33.3 µM. Also, the TGI in [7], in assay [9] and in assay [10] was over 100 µM in each case.

For the compound `C[C@@H]1C[C@H]2CC[C@H](O2)[C@H](C)C(=O)O[C@@H](C)C[C@@H]2CC[C@@H](O2)[C@@H](C)C(=O)O[C@H](C)C[C@H]2CC[C@H](O2)[C@H](C)C(=O)O[C@@H](C)C[C@@H]2CC[C@@H](O2)[C@@H](C)C(=O)O1`, the TGI is over 61.3 µM in assay [1]; over 100 µM in [2]; 22 µM in assay [4]; over 100 µM in assay [5]; over 100 µM in assay [6]; 41.8 µM in [7]. In addition, the TGI was 0.857 µM in assay [8], over 51.4 µM in assay [9] and over 100 µM in assay [10].
